Experimental data from US20220016241A1, “COMPOSITIONS AND METHODS FOR REDUCING ANTIGEN-SPECIFIC IMMUNOGENICITY” (The Research Foundation for The State University of New York, priority 2013, published 2022).

Tests used:
[1] = Plasma creatine kinase and injection site after 28 daily s.c. injections of OPLS; type: in vivo, CD-1 mice
Description: FIG. 22. Plasma Creatine Kinase (CK: an enzyme with high expression in myocytes, elevation of plasma CK is an indication of damage to muscle tissue) activity levels after 28 daily s.c. injections of OPLS to CD-1 mice.

TNF-α = assay: Cytokine profile of BMDCs in vitro, TNF-α ELISA; type: cell-based, HA mice; conditions: 1 μg/ml FVIII with 50 mM OPLS, 48 hours, n=4
Experimental: Generation of bone marrow derived dendritic cells (BMDC): Bone marrow was isolated from 6 to 8 week old naïve HA. Briefly, bone marrow was cultured in RPMI media supplemented with […] (low endotoxin), 2-mercaptoethanol, Pen/Strep and […] GMCSF. Media was changed on days 3, 6 and 8 of culture and DCs were used on day 9. BMDC are then harvested and used as needed. To verify the differentiation of bone marrow cells into DCs, CD11c surface expression was confirmed by flow cytometry using anti-CD11c-FITC antibody with appropriate isotope controls.
Effects of OPLS on cytokine profile of BMDCs in vitro: The effects of OPLS on cytokine secretion by dendritic cells were investigated. On day 9 BMDCs, generated as above, were treated with FVIII as an antigen in the presence of increasing dose of OPLS. Changes in production of pro-inflammatory cytokines TNF-α and IL12p70 as well as the regulatory cytokine TGF-β were monitored as a function of dose. BMDCs were exposed to 1 μg/ml FVIII with increasing dose of OPLS (0, 0.5, 1, 10, 25, 50 mM). 1 M stock of OPLS was prepared by adding the appropriate amount of OPLS directly to RPMI media, and pH was adjusted using sterile 3N and 1N NaOH. […] TGF-β, TNF-α and IL-12p70 concentrations were determined using standard ELISA (R&D System Inc. Minneapolis, Minn., USA or Invitrogen […], Calif.).

lymphocyte subsets = assay: Lymphocyte subsets in peripheral blood after 21 daily doses of OPLS; type: in vivo, rhesus macaques; conditions: 21 daily doses of 25 mg/kg
Experimental: FIG. 23. Effect of 21 daily doses of 25 mg/kg OPLS on lymphocyte subsets in peripheral blood of rhesus macaques. Samples were drawn from the animals at baseline (day 0), at an intermediate time point during treatment (day 8) and 1 day after the termination of dosing (day 22) and immunophenotyped using flow cytometry. […] (*p value<0.05).

## N[C@@H](COP(=O)(O)O)C(=O)O [OPLS, O-Phospho-L-Serine]
[1]
  Plasma creatine kinase activity vs vehicle: No statistical significance
[1]; macroscopic evaluation
  Injection site pathology at necropsy: No visible injection site pathology
TNF-α
  TNF-α production by BMDC: substantial reduction
Lymphocyte subsets
  % of B-cells: transient increase
Lymphocyte subsets; days 0, 8, 22
  Lymphocyte subsets, baseline vs post treatment: no significant change
